Values of other authors as cited in patent US20220031861A1, “COMBINATION THERAPY OF DIFFUSE LARGE B-CELL LYMPHOMA COMPRISING AN ANTI-CD79B IMMUNOCONJUGATES, AN ALKYLATING AGENT AND AN ANTI-CD20 ANTIBODY” (priority 2018, published 2022).

System: R/R DLBCL
[1] = R/R DLBCL, monotherapy and combined with an anti-CD20 monoclonal antibody

Substance: Polatuzumab vedotin
- complete remission (CR) rates [1]: 0-15%
- overall response rates (ORR) [1]: 13-56%
- CR rate reported previously (in combination with an anti-CD20 monoclonal antibody (Morschhauser et al. 2014, ROMULUS)): 15%
